Measured values from patent US20100267561A1, “HERBICIDAL PYRIDAZINONE DERIVATIVES” (priority 2007, published 2010).

Tests used:
Assay in all cases: Test B pre-/postemergence plant response
Type in all cases: in vivo
[1] = test system: blackgrass (Alopecurus myosuroides)
Outline: (§1)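 Preemergence and postemergence (plants 2-18 cm, 1- to 4-leaf stage) applications used test chemicals in a non-phytotoxic solvent with surfactant. Plants were held in a greenhouse 13 to 15 days, then rated visually against controls on a 0-100 scale (0 no effect, 100 complete control).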

[2] = test system: common (oilseed) sunflower (Helianthus annuus); conditions: Preemergence
Outline: as §1

[3] = test system: common ragweed (Ambrosia elation)
Outline: as §1

[4] = test system: eastern black (E.B.) nightshade (Solanum ptycanthum); conditions: Preemergence
Outline: as §1

[5] = test system: goosegrass (Eleusine indica)
Outline: as §1

[6] = test system: green foxtail (Setaria viridis)
Outline: as §1

[7] = test system: lambsquarters (Chenopodium album)
Outline: as §1

[8] = test system: large crabgrass (Digitaria sanguinalis)
Outline: as §1

[9] = test system: morningglory (Ipomoea coccinea)
Outline: as §1

soybean (Glycine max) = test system: soybean (Glycine max)
Outline: as §1

[10] = test system: surinam grass (Brachiaria decumbens)
Outline: as §1

[11] = test system: wheat (Triticum aestivum)
Outline: as §1

wild oat (Avena fatua) = test system: wild oat (Avena fatua)
Outline: as §1

[12] = 8 g ai/ha, postemergence, 0-100 scale
[13] = 16 g ai/ha, postemergence, 0-100 scale
[14] = Postemergence, 31 g ai/ha, scale 0 to 100
[15] = Postemergence, 62 g ai/ha, scale 0 to 100, 0 no effect, 100 complete control
[16] = Preemergence, 8 g ai/ha, scale 0 to 100 (0 no effect, 100 complete control)
[17] = Preemergence, 31 g ai/ha, scale 0 to 100 (0 no effect, 100 complete control)
[18] = Preemergence, 62 g ai/ha, 0 to 100 scale, 0 no effect, 100 complete control
[19] = Preemergence, 16 g ai/ha, scale 0 to 100
[20] = 8 g ai/ha, scale 0 to 100 (0 no effect, 100 complete control)
[21] = 31 g ai/ha, scale 0 to 100 (0 no effect, 100 complete control)
[22] = 62 g ai/ha, 0 to 100 scale, 0 no effect, 100 complete control

COc1nn(C)c(=O)c(-n2nc(-c3ccc(Br)cc3)cc2C)c1O [Compound 82]
Blackgrass plant response rating [1, 12]: 98
Blackgrass plant response rating [1, 13]: 98
Plant response rating, Blackgrass [1, 14]: 100
Plant response rating, Blackgrass [1, 15]: 100
Blackgrass plant response rating [1, 16]: 80
Plant response rating, Blackgrass [1, 17]: 100
Plant response rating, Blackgrass [1, 18]: 100
Blackgrass plant response rating [1, 19]: 98
Sunflower plant response rating [2, 20]: 0
Plant response rating, Sunflower [2, 21]: 70
Plant response rating, Sunflower [2, 22]: 85
Sunflower plant response rating ([2]; 16 g ai/ha, scale 0 to 100): 60
Ragweed plant response rating [3, 12]: 20
Ragweed plant response rating [3, 13]: 40
Plant response rating, Ragweed [3, 14]: 65
Plant response rating, Ragweed [3, 15]: 85
Ragweed plant response rating [3, 16]: 0
Plant response rating, Ragweed [3, 17]: 50
Plant response rating, Ragweed [3, 18]: 80
Ragweed plant response rating [3, 19]: 20
Nightshade, E. B. plant response rating [4, 20]: 0
Plant response rating, Nightshade, E. B. [4, 21]: 0
Plant response rating, Nightshade, E. B. [4, 22]: 0
Nightshade, E. B. plant response rating ([4]; 16 g ai/ha, scale 0 to 100): 0
Goosegrass plant response rating [5, 12]: 60
Goosegrass plant response rating [5, 13]: 65
Plant response rating, Goosegrass [5, 14]: 85
Plant response rating, Goosegrass [5, 15]: 90
Goosegrass plant response rating [5, 16]: 95
Plant response rating, Goosegrass [5, 17]: 98
Plant response rating, Goosegrass [5, 18]: 100
Goosegrass plant response rating [5, 19]: 98
Foxtail, Green plant response rating [6, 12]: 85
Foxtail, Green plant response rating [6, 13]: 100
Plant response rating, Foxtail, Green [6, 14]: 100
Plant response rating, Foxtail, Green [6, 15]: 100
Foxtail, Green plant response rating [6, 16]: 70
Plant response rating, Foxtail, Green [6, 17]: 100
Plant response rating, Foxtail, Green [6, 18]: 100
Foxtail, Green plant response rating [6, 19]: 100
Lambsquarters plant response rating [7, 12]: 0
Lambsquarters plant response rating [7, 13]: 0
Plant response rating, Lambsquarters [7, 14]: 0
Plant response rating, Lambsquarters [7, 15]: 0
Lambsquarters plant response rating [7, 16]: 0
Plant response rating, Lambsquarters [7, 17]: 100
Plant response rating, Lambsquarters [7, 18]: 100
Lambsquarters plant response rating [7, 19]: 0
Crabgrass, Large plant response rating [8, 12]: 100
Crabgrass, Large plant response rating [8, 13]: 100
Plant response rating, Crabgrass, Large [8, 14]: 100
Plant response rating, Crabgrass, Large [8, 15]: 100
Crabgrass, Large plant response rating [8, 16]: 95
Plant response rating, Crabgrass, Large [8, 17]: 100
Plant response rating, Crabgrass, Large [8, 18]: 100
Crabgrass, Large plant response rating [8, 19]: 98
Morningglory plant response rating [9, 12]: 0
Morningglory plant response rating [9, 13]: 0
Plant response rating, Morningglory [9, 14]: 0
Plant response rating, Morningglory [9, 15]: 55
Morningglory plant response rating [9, 16]: 0
Plant response rating, Morningglory [9, 17]: 0
Plant response rating, Morningglory [9, 18]: 25
Morningglory plant response rating [9, 19]: 0
Soybean plant response rating (soybean (Glycine max); [12]): 0
Soybean plant response rating (soybean (Glycine max); [13]): 45
Plant response rating, Soybean (soybean (Glycine max); [14]): 55
Plant response rating, Soybean (soybean (Glycine max); [15]): 70
Soybean plant response rating (soybean (Glycine max); [16]): 0
Plant response rating, Soybean (soybean (Glycine max); [17]): 20
Plant response rating, Soybean (soybean (Glycine max); [18]): 100
Soybean plant response rating (soybean (Glycine max); [19]): 0
Surinam Grass plant response rating [10, 12]: 75
Surinam Grass plant response rating [10, 13]: 95
Plant response rating, Surinam Grass [10, 14]: 100
Plant response rating, Surinam Grass [10, 15]: 100
Surinam Grass plant response rating [10, 16]: 80
Plant response rating, Surinam Grass [10, 17]: 95
Plant response rating, Surinam Grass [10, 18]: 100
Surinam Grass plant response rating [10, 19]: 85
Wheat plant response rating [11, 12]: 85
Wheat plant response rating [11, 13]: 98
Plant response rating, Wheat [11, 14]: 100
Plant response rating, Wheat [11, 15]: 100
Wheat plant response rating [11, 16]: 0
Plant response rating, Wheat [11, 17]: 98
Plant response rating, Wheat [11, 18]: 100
Wheat plant response rating [11, 19]: 65
Oat, Wild plant response rating (wild oat (Avena fatua); [12]): 95
Oat, Wild plant response rating (wild oat (Avena fatua); [13]): 95
Plant response rating, Oat, Wild (wild oat (Avena fatua); [14]): 95
Plant response rating, Oat, Wild (wild oat (Avena fatua); [15]): 100
Oat, Wild plant response rating (wild oat (Avena fatua); [16]): 0
Plant response rating, Oat, Wild (wild oat (Avena fatua); [17]): 80
Plant response rating, Oat, Wild (wild oat (Avena fatua); [18]): 80
Oat, Wild plant response rating (wild oat (Avena fatua); [19]): 60
